Test results: patent US9758485B2, “Compounds for controlling arthropods” (priority 2013, dated 2017)

Tests used:
Boophilus microplus = Boophilus microplus - injection test; assay type: in vivo; conditions: application rate 20 μg/animal; injected into engorged adult female ticks; laying of fertile eggs, after 7 days
Procedure: Boophilus microplus—Injection Test
(§1) Solvent: dimethyl sulphoxide
To produce an appropriate active ingredient formulation, 10 mg of active ingredient are mixed with 0.5 ml of solvent and the concentrate is diluted with solvent to the desired concentration.
1 μl of the active ingredient solution is injected into the abdomen of 5 engorged adult female cattle ticks (Boophilus microplus). The animals are transferred into dishes and kept in a climate-controlled room.
Efficacy is assessed after 7 days by laying of fertile eggs. Eggs which are not visibly fertile are stored in a climate-controlled cabinet until the larvae hatch after about 42 days. An efficacy of 100% means that none of the ticks has laid any fertile eggs; 0% means that all the eggs are fertile.

Ctenocephalides felis = Ctenocephalides felis - oral test; assay type: in vivo; conditions: application rate 100 ppm in citrated cattle blood; adult fleas; kill after 2 days
Procedure: Ctenocephalides felis—Oral Test
as §1
For the purpose of producing an appropriate active ingredient formulation, 10 mg of active ingredient are mixed with 0.5 ml of dimethyl sulphoxide. Dilution with citrated cattle blood gives the desired concentration.
About 20 unfed adult cat fleas (Ctenocephalides felis) are placed into a chamber which is closed at the top and bottom with gauze. A metal cylinder whose bottom end is closed with parafilm is placed onto the chamber. The cylinder contains the blood/active ingredient preparation, which can be imbibed by the fleas through the parafilm membrane.
After 2 days, the kill in % is determined. 100% means that all of the fleas have been killed; 0% means that none of the fleas have been killed.

[1] = logP determination by HPLC on a reversed-phase column (C18), EEC Directive 79/831 Annex V.A8; assay type: physicochemical; conditions: for logP^a): HPLC-MS method a), Table I-T3; for logP: HPLC, reversed-phase C18, acetonitrile/water with formic acid, 55° C.
[2] = HPLC-MS, reversed-phase column (C18)
[3] = HPLC on reversed-phase column (C18)

## Cc1cc(C(F)(C(F)(F)F)C(F)(F)F)cc(C)c1-c1ccn(-c2ccc(Cl)c(C(=O)NC3(C#N)CC3)c2)n1 [I-T2-2]
Boophilus microplus
  efficacy: 100%

## Cc1cc(C(F)(C(F)(F)F)C(F)(F)F)cc(C)c1-n1cc(-c2cc(C(=O)NC3CC3)c(F)cc2Cl)cn1 [I-T3-11]
Ctenocephalides felis
  efficacy: 95%
Boophilus microplus
  efficacy: 100%
[1]
  logP^a): 4.9

## Cc1ccc(C(=O)NC2CC2)cc1-c1cnn(-c2c(C)cc(C(F)(C(F)(F)F)C(F)(F)F)cc2C)c1 [I-T3-16]
Ctenocephalides felis
  efficacy: 80%
[1]
  logP^a): 4.4

## O=C(NC1CC1)c1cc(-c2cnn(-c3c(Cl)cc(C(F)(C(F)(F)F)C(F)(F)F)cc3Cl)c2)cnc1N1CCCC1 [I-T3-135]
Ctenocephalides felis
  efficacy: 100%
[1]; [2]
  log P: 4.3

## Cc1cc(C(F)(C(F)(F)F)C(F)(F)F)cc(C)c1-n1cc(-c2cnc(C3CC3)c(C(=O)N(C)C3CC3)c2)cn1 [I-T3-142]
Boophilus microplus
  efficacy: 100%
[1]; [2]
  log P: 4.6

## CCSc1cc(C(F)(F)F)cc(C#N)c1-n1cc(-c2ccc(Cl)c(C(=O)NC3(C#N)CC3)c2)cn1 [I-T3-177]
[1]; [2]
  log P: 3.4

## CCS(=O)(=O)c1cc(C(F)(F)F)cc(Cl)c1-n1cc(-c2ccc(Cl)c(C(=O)NC3CC3)c2)cn1 [I-T3-178]
[1]; [2]
  log P: 3.2

## CC[S+]([O-])c1cc(C(F)(F)F)cc(Cl)c1-n1cc(-c2ccc(Cl)c(C(=O)NC3CC3)c2)cn1 (stereo not shown) [I-T3-179]
[1]; [2]
  log P: 3.0

## CCS(=O)(=O)c1cc(C(F)(F)F)cc(C#N)c1-n1cc(-c2ccc(Cl)c(C(=O)NC3CC3)c2)cn1 [I-T3-180]
[1]; [2]
  log P: 2.8

## CC[S+]([O-])c1cc(C(F)(F)F)cc(C#N)c1-n1cc(-c2ccc(Cl)c(C(=O)NC3CC3)c2)cn1 (stereo not shown) [I-T3-181]
[1]; [2]
  log P: 2.7

## CCS(=O)(=O)c1cc(C(F)(F)F)cc(Cl)c1-n1cc(-c2ccc(Cl)c(C(=O)NC3(C#N)CC3)c2)cn1 [I-T3-183]
[1]; [3]
  log P: 3.1

## O=C(NC1CC1)c1cc(-c2cnn(-c3c(F)cc(C(F)(F)F)cc3Cl)c2)ccc1Cl [I-T3-186]
[1]; [3]
  log P: 3.6

## N#CC1(NC(=O)c2cc(-c3cnn(-c4c(F)cc(C(F)(F)F)cc4Cl)c3)ccc2Cl)CC1 [I-T3-187]
[1]; [3]
  log P: 3.3

## N#CC1(NC(=O)c2cc(-c3cnn(-c4c(F)c(F)c(C(F)(F)F)c(F)c4F)c3)ccc2Cl)CC1 [I-T3-188]
[1]; [3]
  log P: 3.4

## CCS(=O)(=O)c1cc(C(F)(F)F)cc(C#N)c1-n1cc(-c2ccc(Cl)c(C(=O)NC3(C#N)CC3)c2)cn1 [I-T3-190]
[1]; [3]
  log P: 2.9

## CCSc1cc(C(F)(C(F)(F)F)C(F)(F)F)cc(SCC)c1-n1cc(-c2ccc(Cl)c(C(=O)NC3(C#N)CC3)c2)cn1 [I-T3-191]
[1]; [3]
  log P: 4.7

## CCSc1cc(C(F)(C(F)(F)F)C(F)(F)F)cc(Cl)c1-n1cc(-c2ccc(Cl)c(C(=O)NC3(C#N)CC3)c2)cn1 [I-T3-192]
[1]; [3]
  log P: 4.5

## O=C(NC1CC1)c1cc(-c2cnn(-c3c(Cl)cc(C(F)(C(F)(F)F)C(F)(F)F)cc3C(F)F)c2)ccc1Cl [I-T3-193]
[1]; [3]
  log P: 4.4

## NC(=O)C1(NC(=O)c2cc(-c3cnn(-c4c(F)c(F)c(C(F)(F)F)c(F)c4F)c3)ccc2Cl)CC1 [I-T3-194]
[1]; [3]
  log P: 2.8

## CC[S+]([O-])c1cc(C(F)(C(F)(F)F)C(F)(F)F)cc(Cl)c1-n1cc(-c2ccc(Cl)c(C(=O)NC3(C#N)CC3)c2)cn1 (stereo not shown) [I-T3-195]
[1]; [3]
  log P: 3.8

## Cc1cc(C(F)(C(F)(F)F)C(F)(F)F)cc(C(F)(F)F)c1-n1cc(-c2cnc(Cl)c(C(=O)NCC3(C#N)CC3)c2)cn1 [I-T3-197]
[1]; [3]
  log P: 4.0

## CCS(=O)(=O)c1cc(C(F)(C(F)(F)F)C(F)(F)F)cc(S(=O)(=O)CC)c1-n1cc(-c2ccc(Cl)c(C(=O)NC3(C#N)CC3)c2)cn1 [I-T3-198]
[1]; [3]
  log P: 3.7

## CCS(=O)(=O)c1cc(C(F)(C(F)(F)F)C(F)(F)F)cc(Cl)c1-n1cc(-c2ccc(Cl)c(C(=O)NC3(C#N)CC3)c2)cn1 [I-T3-201]
[1]; [3]
  log P: 4.0

## CCSc1cc(C(F)(C(F)(F)F)C(F)(F)F)cc(C)c1-n1cc(-c2ccc(Cl)c(C(=O)NC3(C#N)CC3)c2)cn1 [I-T3-202]
[1]; [3]
  log P: 4.5

## CCSc1cc(C(F)(C(F)(F)F)C(F)(F)F)cc(C)c1-n1cc(-c2ccc(Cl)c(C(=O)NC3CC3)c2)cn1 [I-T3-203]
[1]; [3]
  log P: 4.6

## CN(C(=O)c1cc(-c2cnn(-c3c(Cl)cc(C(F)(C(F)(F)F)C(F)(F)F)cc3C#N)c2)cnc1Cl)C1CC1 [I-T3-204]
[1]; [3]
  log P: 3.9

## N#Cc1cc(C(F)(C(F)(F)F)C(F)(F)F)cc(Cl)c1-n1cc(-c2cnc(Cl)c(C(=O)NC3CC3)c2)cn1 [I-T3-205]
[1]; [3]
  log P: 3.5

## CC[S+]([O-])c1cc(C(F)(C(F)(F)F)C(F)(F)F)cc(C)c1-n1cc(-c2ccc(Cl)c(C(=O)NC3(C#N)CC3)c2)cn1 (stereo not shown) [I-T3-206]
[1]; [3]
  log P: 3.6

## N#Cc1cc(C(F)(C(F)(F)F)C(F)(F)F)cc(Cl)c1-n1cc(-c2cnc(Cl)c(C(=O)NC3(C#N)CC3)c2)cn1 [I-T3-207]
[1]; [3]
  log P: 3.5

## CN(C(=O)c1cc(-c2cnn(-c3c(Cl)cc(C(F)(C(F)(F)F)C(F)(F)F)cc3OC(F)(F)F)c2)cnc1Cl)C1CC1 [I-T3-208]
[1]; [3]
  log P: 4.6

## CCS(=O)(=O)c1cc(C(F)(C(F)(F)F)C(F)(F)F)cc(C)c1-n1cc(-c2ccc(Cl)c(C(=O)NC3(C#N)CC3)c2)cn1 [I-T3-209]
[1]; [3]
  log P: 3.8

## CCS(=O)(=O)c1cc(C(F)(C(F)(F)F)C(F)(F)F)cc(C)c1-n1cc(-c2ccc(Cl)c(C(=O)NC3CC3)c2)cn1 [I-T3-210]
[1]; [3]
  log P: 3.9

## CCOc1cc(C(F)(C(F)(F)F)C(F)(F)F)cc(OCC)c1-n1cc(-c2cnc(Cl)c(C(=O)N(C)C3CC3)c2)cn1 [I-T3-211]
[1]; [3]
  log P: 4.7

## N#CC1(NC(=O)c2cc(-c3cnn(-c4c(Cl)cc(C(F)(C(F)(F)F)C(F)(F)F)cc4I)c3)ccc2Cl)CC1 [I-T3-212]
[1]; [3]
  log P: 4.3

## O=C(NC1CC1)c1cc(-c2cnn(-c3c(Cl)cc(C(F)(C(F)(F)F)C(F)(F)F)cc3I)c2)ccc1Cl [I-T3-213]
[1]; [3]
  log P: 4.4

## O=C(NC1CC1)c1cc(-c2cnn(-c3c(Cl)cc(C(F)(C(F)(F)F)C(F)(F)F)cc3OC(F)F)c2)ccc1Cl [I-T3-214]
[1]; [3]
  log P: 4.3

## N#CC1(NC(=O)c2cc(-c3cnn(-c4c(Cl)cc(C(F)(C(F)(F)F)C(F)(F)F)cc4OC(F)F)c3)ccc2Cl)CC1 [I-T3-215]
[1]; [3]
  log P: 4.1

## CN(C(=O)c1cc(-c2cnn(-c3c(Cl)cc(C(F)(C(F)(F)F)C(F)(F)F)cc3OC(F)F)c2)ccc1Cl)C1CC1 [I-T3-216]
[1]; [3]
  log P: 4.7

## CN(C(=O)c1cc(-c2cnn(-c3c(Cl)cc(C(F)(C(F)(F)F)C(F)(F)F)cc3OC(F)F)c2)cnc1Cl)C1CC1 [I-T3-217]
[1]; [3]
  log P: 4.2

## N#CC1(NC(=O)c2cc(-c3cnn(-c4c(Cl)cc(C(F)(C(F)(F)F)C(F)(F)F)cc4OC(F)F)c3)cnc2Cl)CC1 [I-T3-218]
[1]; [3]
  log P: 3.7

## CN(C(=O)c1cc(-c2cnn(-c3c(Cl)cc(C(F)(C(F)(F)F)C(F)(F)F)cc3OC(F)(F)F)c2)ccc1Cl)C1CC1 [I-T3-219]
[1]; [3]
  log P: 5.1

## CN(C(=O)c1cc(-c2cnn(-c3c(Cl)cc(C(O)(C(F)(F)F)C(F)(F)F)cc3Cl)c2)cnc1Cl)C1CC1 [I-T3-220]
[1]; [3]
  log P: 3.4

## O=C(NC1CC1)c1cc(-c2cnn(-c3c(Cl)cc(C(O)(C(F)(F)F)C(F)(F)F)cc3Cl)c2)cnc1Cl [I-T3-221]
[1]; [3]
  log P: 3.0

## N#CC1(NC(=O)c2cc(-c3cnn(-c4c(Cl)cc(C(O)(C(F)(F)F)C(F)(F)F)cc4Cl)c3)cnc2Cl)CC1 [I-T3-222]
[1]; [3]
  log P: 3.0

## CN(C(=O)c1cc(-c2cnn(-c3c(Cl)cc(C(O)(C(F)(F)F)C(F)(F)F)cc3Cl)c2)cnc1Cl)C1(C#N)CC1 [I-T3-223]
[1]; [3]
  log P: 3.3

## O=C(NC1CC1)c1cc(-c2cnn(-c3c(I)cc(C(F)(C(F)(F)F)C(F)(F)F)cc3OC(F)(F)F)c2)ccc1Cl [I-T3-224]
[1]; [3]
  log P: 4.7

## CN(C(=O)c1cc(-c2cnn(-c3c(I)cc(C(F)(C(F)(F)F)C(F)(F)F)cc3OC(F)(F)F)c2)ccc1Cl)C1CC1 [I-T3-225]
[1]; [3]
  log P: 5.2

## N#CC1(NC(=O)c2cc(-c3cnn(-c4c(I)cc(C(F)(C(F)(F)F)C(F)(F)F)cc4OC(F)(F)F)c3)ccc2Cl)CC1 [I-T3-226]
[1]; [3]
  log P: 4.6

## O=C(NC1CC1)c1cc(-c2cnn(-c3c(I)cc(C(F)(C(F)(F)F)C(F)(F)F)cc3C(F)(F)F)c2)ccc1Cl [I-T3-227]
[1]; [3]
  log P: 4.5

## N#CC1(NC(=O)c2cc(-c3cnn(-c4c(I)cc(C(F)(C(F)(F)F)C(F)(F)F)cc4C(F)(F)F)c3)ccc2Cl)CC1 [I-T3-228]
[1]; [3]
  log P: 4.4

## CN(C(=O)c1cc(-c2cnn(-c3c(I)cc(C(F)(C(F)(F)F)C(F)(F)F)cc3C(F)(F)F)c2)ccc1Cl)C1CC1 [I-T3-229]
[1]; [3]
  log P: 5.1

## Cc1cc(C(F)(C(F)(F)F)C(F)(F)F)cc(C)c1-n1ccc(-c2ccc(Cl)c(C(=O)NC3(C#N)CC3)c2)c1 [I-T46-1]
[1]
  logP: 4.90

## CN(C(=O)c1cc(-c2ccn(-c3c(Cl)cc(C(F)(C(F)(F)F)C(F)(F)F)cc3Cl)c2)cnc1Cl)C1CC1 [I-T46-3]
[1]
  logP: 5.0

## O=C(NC1CC1)c1cc(-c2ccn(-c3c(Cl)cc(C(F)(C(F)(F)F)C(F)(F)F)cc3Cl)c2)cnc1Cl [I-T46-4]
[1]
  logP: 4.5

## N#CC1(NC(=O)c2cc(-c3ccn(-c4c(Cl)cc(C(F)(C(F)(F)F)C(F)(F)F)cc4Cl)c3)cnc2Cl)CC1 [I-T46-5]
[1]
  logP: 4.4

## CN(C(=O)c1cc(-c2ccn(-c3c(Cl)cc(C(F)(C(F)(F)F)C(F)(F)F)cc3Cl)c2)cnc1Cl)C1(C#N)CC1 [I-T46-6]
[1]
  logP: 4.8
